By IC50 is commonly meant the concentration needed to halve the response being measured. Read a high IC50 as weaker potency.

Format in all cases: biochemical
What all share (settings): inhibit 50% of activity at 50 μM

The target in assay [1] is T1, JAK3 (Homo sapiens, UniProt P52333).
T1 construct: The kinase domain of humanJAK3 was amplified from U937mRNA; His tag (from pFastBac HTb vector; nickel chelate purification) (N); made in house; host or cells: baculovirus; virus made in Sf9, large-scale expression in High Five insect cells
Nature of the assay: JAK3 kinase domain capture-based ELISA kinase assay. How it is done:
(§1) For screening purposes, compounds were diluted in 96 well plates at a concentration of 50 μM or 20 μM. Plates were warmed at 37° C. for 30 minutes before assay.
The kinase domain of humanJAK3 was amplified from U937mRNA using the polymerase chain reaction with the following primers: […]
JAK3 PCR products were cloned into the pFastBac HTb expression vector (Gibco) via the Xho I and Kpn I sites. The JAK3 plasmid was then transformed into competent DH10Bac cells (Gibco), and the recombinant baculovirus produced prepared for transfection into Sf9 insect cells.
(§2) Baculovirus preparations from each of the JAK family members were infected into five litres of High Five cells (Invitrogen) grown in High Five serum free medium (Invitrogen) to a cell density of approximately 1-2×10^6 cells/ml. Cells are infected with virus at a MOI of 0.8-3.0. Cells were harvested and lysed. JAK kinase domains were purified by affinity chromatography on a Probond (Invitrogen) nickel chelate affinity column.
(§3) The biotinylated substrate biotin-EGPWLEEEEEAYGWMDF-NH2 (SEQ ID NO:9) (final concentration 5 μM) was used as substrate, and tyrosine phosphorylation was quantitated following transfer to an avidin coated ELISA plate using peroxidase-linked anti-phospho-tyrosine antibody PY20.
(§4) Inhibitors were added to the assays fifteen minutes prior to the addition of ATP. Inhibitors were added in aqueous DMSO, with DMSO concentrations never exceeding 1%.
In general terms: In an ELISA, binding on a coated surface is turned into a signal by an enzyme label.

Assay [2] concerns the target T2, JAK2 (Homo sapiens, UniProt O60674).
T2 construct: The kinase domain of humanJAK2 was amplified from U937mRNA; His tag (from pFastBac HTc vector; nickel chelate purification) (N); made in house; host or cells: baculovirus; virus made in Sf9, large-scale expression in High Five insect cells
Description: JAK2 kinase domain capture-based ELISA kinase assay. How it is done: as §1
The kinase domain of humanJAK2 was amplified from U937mRNA using the polymerase chain reaction with the following primers: […]
JAK2 PCR products were cloned into the pFastBac HTc expression vector (Gibco) via the Sal I and Not I sites. The JAK2 plasmid was then transformed into competent DH10Bac cells (Gibco), and the recombinant baculovirus produced prepared for transfection into Sf9 insect cells.
as §2, §3, §4

Assay [3] deals with T3, TYK2 (Homo sapiens, UniProt P29597).
T3 construct: The kinase domain of humanTYK2 was amplified from A549 mRNA; His tag (from pBlueBacHis2A vector; nickel chelate purification) (N); made in house; host or cells: baculovirus; virus made in Sf9, large-scale expression in High Five insect cells
T3 sequence (P29597 897-1176 limits assumed): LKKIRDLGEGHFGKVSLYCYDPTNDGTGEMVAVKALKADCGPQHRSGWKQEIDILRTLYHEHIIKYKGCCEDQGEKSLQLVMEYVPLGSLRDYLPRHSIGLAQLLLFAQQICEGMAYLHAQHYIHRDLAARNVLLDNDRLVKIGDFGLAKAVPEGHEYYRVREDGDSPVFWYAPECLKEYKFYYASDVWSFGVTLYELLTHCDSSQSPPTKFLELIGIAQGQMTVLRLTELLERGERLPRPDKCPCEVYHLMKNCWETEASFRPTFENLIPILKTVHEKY
Nature of the assay: TYK2 kinase domain capture-based ELISA kinase assay. On the procedure: as §1
The kinase domain of humanTYK2 was amplified from A549 mRNA using the polymerase chain reaction with the following primers: […]
TYK2 PCR products were cloned into pBlueBacHis2A (Invitrogen) via the EcoRI site. The recombinant TYK2 baculovirus produced was prepared for transfected into Sf9 insect cells.
as §2, §3, §4

The target in assay [4] is T4, JAK1 (Homo sapiens, UniProt P23458).
T4 construct: The kinase domain of humanJAK1 was amplified from U937mRNA; His tag (from pFastBac HTb vector; nickel chelate purification) (N); made in house; host or cells: baculovirus; virus made in Sf9, large-scale expression in High Five insect cells
Description: JAK1 kinase domain capture-based ELISA kinase assay. How it is done: as §1
The kinase domain of humanJAK1 was amplified from U937mRNA using the polymerase chain reaction with the following primers: […]
JAK1 PCR products were cloned into the pFastBac HTb expression vector (Gibco) via the Xho I and Kpn I sites. The JAK1 plasmid was then transformed into competent DH10Bac cells (Gibco), and the recombinant baculovirus produced prepared for transfection into Sf9 insect cells.
as §2, §3, §4

T1 sequence (P52333 822-1111 limits assumed): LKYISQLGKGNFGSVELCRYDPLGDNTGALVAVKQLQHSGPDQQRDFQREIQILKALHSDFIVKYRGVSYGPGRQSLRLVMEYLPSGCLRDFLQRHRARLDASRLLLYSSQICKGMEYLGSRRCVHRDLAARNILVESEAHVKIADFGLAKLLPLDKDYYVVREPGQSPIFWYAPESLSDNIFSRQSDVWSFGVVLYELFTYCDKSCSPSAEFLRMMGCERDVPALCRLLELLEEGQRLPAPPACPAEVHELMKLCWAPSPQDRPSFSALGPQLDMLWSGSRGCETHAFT
T2 sequence (O60674 849-1124 limits assumed): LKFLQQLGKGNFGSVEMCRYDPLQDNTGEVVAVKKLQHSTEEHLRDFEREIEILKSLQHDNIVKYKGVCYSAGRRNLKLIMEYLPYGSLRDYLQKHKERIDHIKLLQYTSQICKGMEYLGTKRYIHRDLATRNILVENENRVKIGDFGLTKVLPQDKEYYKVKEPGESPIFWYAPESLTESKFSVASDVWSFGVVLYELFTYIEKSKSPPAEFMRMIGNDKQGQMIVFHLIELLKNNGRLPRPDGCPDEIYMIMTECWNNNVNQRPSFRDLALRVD
T4 sequence (P23458 875-1153 limits assumed): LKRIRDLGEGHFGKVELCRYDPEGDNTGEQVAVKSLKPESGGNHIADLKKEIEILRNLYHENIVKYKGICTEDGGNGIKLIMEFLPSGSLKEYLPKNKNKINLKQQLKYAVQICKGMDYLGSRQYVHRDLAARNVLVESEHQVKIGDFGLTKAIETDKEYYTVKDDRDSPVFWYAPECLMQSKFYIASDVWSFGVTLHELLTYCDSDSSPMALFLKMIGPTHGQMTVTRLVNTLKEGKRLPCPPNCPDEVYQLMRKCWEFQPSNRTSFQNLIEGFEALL

For the compound `O=C(NCCO)c1cccc(-c2cn3ccnc3c(Nc3ccc(N4CCOCC4)cc3)n2)c1`, the IC50 in assay [1] (Table 5), in assay [2] (Table 5), in assay [3] (Table 5) and in assay [4] (Table 5) was less than 50 µM in each case.

As for `COc1cccc(OC)c1-c1cn2ccnc2c(Nc2ccc(N3CCOCC3)cc2)n1`, the IC50 in assay [1] (Table 5), in assay [2] (Table 5), in assay [3] (Table 5) and in assay [4] (Table 5) was less than 50 µM throughout.

In the case of `Fc1ccccc1-c1cn2ccnc2c(NCc2ccccn2)n1`, the IC50 in assay [1] (Table 5), in assay [2] (Table 5), in assay [3] (Table 5) and in assay [4] (Table 5) was less than 50 µM in each case.

In the case of `COc1cc(-c2cn3ccnc3c(NCc3ccccn3)n2)cc(OC)c1OC`, the IC50 in assay [1] (Table 5), in assay [2] (Table 5), in assay [3] (Table 5) and in assay [4] (Table 5) was less than 50 µM each time.

With `CC(=O)Nc1ccc(Nc2nc(-c3ccc(O)cc3)cn3ccnc23)cc1`, the IC50 in assay [1] (Table 5), in assay [2] (Table 5), in assay [3] (Table 5) and in assay [4] (Table 5) was less than 50 µM in each case.

Turning to `COc1ccc(Nc2nc(-c3ccc4ccccc4c3)cn3ccnc23)cn1`, the IC50 in assay [1] (Table 5), in assay [2] (Table 5), in assay [3] (Table 5) and in assay [4] (Table 5) was less than 50 µM each time.

For the compound `CC(C)[C@H](CO)Nc1nc(-c2cccc(N)c2)cn2ccnc12`, the IC50 in assay [1] (Table 5), in assay [2] (Table 5), in assay [3] (Table 5) and in assay [4] (Table 5) was less than 50 µM throughout.

Regarding `CC(=O)Nc1cccc(-c2cn3ccnc3c(N[C@@H](CO)C(C)C)n2)c1`, the IC50 in assay [1] (Table 5), in assay [2] (Table 5), in assay [3] (Table 5) and in assay [4] (Table 5) was less than 50 µM throughout.

With `Cc1ccc(S(=O)(=O)Nc2ccc(Nc3nc(-c4ccccc4)cn4ccnc34)cc2)cc1`, the IC50 in assay [1] (Table 5), in assay [2] (Table 5), in assay [3] (Table 5) and in assay [4] (Table 5) was less than 50 µM each time.

Take `CCCC/C=C/c1cn2ccnc2c(Nc2cccc(OCC(=O)N(C)C)c2)n1`: the IC50 in assay [1] (Table 5), in assay [2] (Table 5), in assay [3] (Table 5) and in assay [4] (Table 5) was less than 50 µM throughout.

As to `COc1cc(-c2cn3ccnc3c(N[C@@H]3CCN(Cc4ccccc4)C3)n2)cc(OC)c1OC`, the IC50 in assay [1] (Table 5), in assay [2] (Table 5), in assay [3] (Table 5) and in assay [4] (Table 5) was less than 50 µM in each case.

Take `COc1cc(-c2cn3ccnc3c(N3CCCN(C)CC3)n2)cc(OC)c1OC`: the IC50 in assay [1] (Table 5), in assay [2] (Table 5), in assay [3] (Table 5) and in assay [4] (Table 5) was less than 50 µM throughout.

Turning to `c1ccc(CNc2nc(Nc3cccc4[nH]ccc34)cn3ccnc23)cc1`, the IC50 in assay [1] (Table 5), in assay [2] (Table 5), in assay [3] (Table 5) and in assay [4] (Table 5) was less than 50 µM throughout.

For `c1ccc2c(-c3cn4ccnc4c(Nc4ccc5cn[nH]c5c4)n3)cccc2c1`, the IC50 in assay [1] (Table 5), in assay [2] (Table 5), in assay [3] (Table 5) and in assay [4] (Table 5) was less than 50 µM each time.

`c1ccc(-c2cc(Nc3ccc4[nH]ccc4c3)c3nccn3c2)cc1`: the concentration for half-maximal inhibition (IC50) in assay [1] (Table 5), in assay [2] (Table 5), in assay [3] (Table 5) and in assay [4] (Table 5) was less than 50 µM throughout.

On to `FC(F)(F)c1cc(-c2cn3ccnc3c(NCC3CCOCC3)n2)cc(C(F)(F)F)c1`, for which the IC50 in assay [1] (Table 6) was more than 50 µM; in assay [2] (Table 6), less than 50 µM; in assay [3] (Table 6), more than 50 µM; in assay [4] (Table 6), more than 50 µM.

On to `O=C(O)c1cccc(-c2cn3ccnc3c(Nc3ccc(N4CCOCC4)cc3)n2)c1`, for which the IC50 in assay [1] (Table 6), in assay [2] (Table 6), in assay [3] (Table 6) and in assay [4] (Table 6) was less than 50 µM each time.

As to `O=C(O)c1ccc(-c2cn3ccnc3c(N3CCN(c4ccccn4)CC3)n2)cc1`, the IC50 in assay [1] (Table 6) was more than 50 µM; in assay [2] (Table 6), more than 50 µM; in assay [3] (Table 6), more than 50 µM; in assay [4] (Table 6), less than 50 µM.

Consider `Cc1ccc(S(=O)(=O)Nc2ccc(Nc3nc(-c4cccc(C(=O)NCCN(C)C)c4)cn4ccnc34)cc2)cc1`, for which the IC50 in assay [1] (Table 6) was more than 50 µM; in assay [2] (Table 6), less than 50 µM; in assay [3] (Table 6), more than 50 µM; in assay [4] (Table 6), less than 50 µM.

As for `CC(=O)Nc1ccc(Nc2nc(-c3ccc4ccccc4c3)cn3ccnc23)cc1`, the IC50 in assay [1] (Table 6) is more than 50 µM; in assay [2] (Table 6) it was less than 50 µM; in assay [3] (Table 6) it was less than 50 µM; in assay [4] (Table 6) it was less than 50 µM.

With `CCN(CCO)c1ccc(Nc2nc(-c3cc(C(F)(F)F)cc(C(F)(F)F)c3)cn3ccnc23)cc1`, the IC50 was more than 50 µM in assay [1] (Table 6), less than 50 µM in assay [2] (Table 6), more than 50 µM in assay [3] (Table 6) and more than 50 µM in assay [4] (Table 6).

Regarding `Clc1ccccc1-c1cn2ccnc2c(NCc2ccccn2)n1`, the IC50 was more than 50 µM in assay [1] (Table 6), less than 50 µM in assay [2] (Table 6), more than 50 µM in assay [3] (Table 6) and more than 50 µM in assay [4] (Table 6).

Regarding `CCC(CO)Nc1nc(-c2ccco2)cn2ccnc12` (centres unmarked), the IC50 in assay [1] (Table 6) was less than 50 µM; in assay [2] (Table 6) it was less than 50 µM; in assay [3] (Table 6), more than 50 µM; in assay [4] (Table 6) it was less than 50 µM.

Regarding `O=C(O)c1ccc(-c2cn3ccnc3c(N3CCN(c4ccncc4)CC3)n2)cc1`, the IC50 in assay [1] (Table 6) was more than 50 µM; in assay [2] (Table 6) it was less than 50 µM; in assay [3] (Table 6), more than 50 µM; in assay [4] (Table 6) it was more than 50 µM.

`CCN(CCO)c1ccc(Nc2nc(-c3c(OC)cccc3OC)cn3ccnc23)cc1`: the IC50 was more than 50 µM in assay [1] (Table 6), less than 50 µM in assay [2] (Table 6), more than 50 µM in assay [3] (Table 6) and less than 50 µM in assay [4] (Table 6).

On to `Cc1ccc(S(=O)(=O)Nc2ccc(Nc3nc(-c4cccc(N)c4)cn4ccnc34)cc2)cc1`, for which the IC50 was more than 50 µM in assay [1] (Table 6), less than 50 µM in assay [2] (Table 6), less than 50 µM in assay [3] (Table 6) and less than 50 µM in assay [4] (Table 6).

For `CCCC/C=C/c1cn2ccnc2c(NCCc2cccnc2)n1`, the IC50 in assay [1] (Table 6) was less than 50 µM; in assay [2] (Table 6), more than 50 µM; in assay [3] (Table 6) it was more than 50 µM; in assay [4] (Table 6) it was more than 50 µM.

In the case of `CCCC/C=C/c1cn2ccnc2c(NCc2ccncc2)n1`, the IC50 was less than 50 µM in assay [1] (Table 6), more than 50 µM in assay [2] (Table 6), more than 50 µM in assay [3] (Table 6) and more than 50 µM in assay [4] (Table 6).

Regarding `CC(C)[C@H](CO)Nc1nc(-c2ccc(C(=O)O)cc2)cn2ccnc12`, the IC50 is less than 50 µM in assay [1] (Table 6), less than 50 µM in assay [2] (Table 6), more than 50 µM in assay [3] (Table 6) and more than 50 µM in assay [4] (Table 6).

`O=C(O)c1ccc(-c2cn3ccnc3c(Nc3ccc(Cl)cc3)n2)cc1`: the IC50 in assay [1] (Table 6), in assay [2] (Table 6), in assay [3] (Table 6) and in assay [4] (Table 6) was less than 50 µM each time.

On to `CC(=O)Nc1ccc(Nc2nc(-c3ccccc3F)cn3ccnc23)cc1`, for which the concentration for half-maximal inhibition (IC50) in assay [1] (Table 6), in assay [2] (Table 6), in assay [3] (Table 6) and in assay [4] (Table 6) was less than 50 µM throughout.

Take `c1ccc(Nc2nc(-c3ccc4c(c3)OCO4)cn3ccnc23)cc1`: the IC50 was more than 50 µM in assay [1] (Table 6), less than 50 µM in assay [2] (Table 6), less than 50 µM in assay [3] (Table 6) and less than 50 µM in assay [4] (Table 6).

The values are drawn from US20060069084A1, “Methods of inhibiting kinases” (priority 2001, published 2006).
